Among the data in ChEMBL document CHEMBL1130613, “Design and synthesis of dipeptidyl alpha',beta'-epoxy ketones, potent irreversible inhibitors of the cysteine protease cruzain” (Bioorg Med Chem Lett, 1998) are K inact/Ki values, retold here.

Molecules are shown by their SMILES.

Sequence of Cruzipain (Trypanosoma cruzi) (P25779 123-467 limits assumed): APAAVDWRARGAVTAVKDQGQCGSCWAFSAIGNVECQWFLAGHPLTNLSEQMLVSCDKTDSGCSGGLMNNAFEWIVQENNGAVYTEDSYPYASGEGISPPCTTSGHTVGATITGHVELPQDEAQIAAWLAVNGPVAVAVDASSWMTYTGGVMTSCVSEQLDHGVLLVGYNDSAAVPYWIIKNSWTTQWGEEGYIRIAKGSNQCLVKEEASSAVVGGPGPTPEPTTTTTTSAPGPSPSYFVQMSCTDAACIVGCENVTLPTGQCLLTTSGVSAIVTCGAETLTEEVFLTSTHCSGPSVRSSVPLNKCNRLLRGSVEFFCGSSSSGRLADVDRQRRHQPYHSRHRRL

The experiment addresses Cruzipain (Trypanosoma cruzi) (UniProt P25779). As to the kind of experiment: Second order rate constant for inhibition of cruzain.
Consider `C[C@H](NC(=O)[C@H](Cc1ccccc1)NC(=O)OCc1ccccc1)C(=O)[C@@H]1CO1`, for which the K inact/Ki amounted to 128000 M⁻¹ s⁻¹.

Consider `CC(C)CCNC(=O)[C@H](CC(C)C)NC(=O)[C@H]1OC1C(=O)O` (single isomer, unassigned), for which the K inact/Ki was 70600 M⁻¹ s⁻¹.

The compound `O=C(N[C@@H](Cc1ccccc1)C(=O)N[C@@H](CCc1ccccc1)C(=O)[C@@H]1CO1)OCc1ccccc1` yielded a K inact/Ki of 330000 M⁻¹ s⁻¹.
